Data from PubChem BioAssay AID1745844 (Carcinogenic Potency Database (CPDB), 2022).
The source made the active and inactive calls. No rule for the calls is given here.

System: rodent lifetime carcinogenesis bioassay, tumor incidence TD50
Experiment: chronic cancer bioassays in animals – CPDB, compiled studies (AID 1745844)

For `O=NN(CCO)CCO`, the carcinogen call (rat, strain F344/DuCrj, males, in drinking water, site: liver, lesion: one or several types, types not named, dosed 40 weeks, study length 78 weeks) was “negative (inactive)”, the TD50 (rat, strain Fischer 344, females, in drinking water, site: esophagus, lesion: papilloma, dosed 55 weeks, study length 105 weeks) was 2050 mg/kg/day and the TD50 (rat, strain Fischer 344, females, in drinking water, site: kidney, lesion: one or several types, types not named, dosed 55 weeks, study length 105 weeks) was 327 mg/kg/day. It also gave a TD50 (rat, strain Fischer 344, females, in drinking water, site: kidney, lesion: several types, types named in the paper, dosed 75 weeks, study length 130 weeks) of 42.2 mg/kg/day, a TD50 (rat, strain Fischer 344, females, in drinking water, site: liver, lesion: cholangioadenoma/carcinoma, dosed 75 weeks, study length 130 weeks) of 56.8 mg/kg/day and a TD50 (rat, strain Fischer 344, females, in drinking water, site: liver, lesion: cholangiocarcinoma, dosed 55 weeks, study length 105 weeks) of 197 mg/kg/day. For the same compound, the TD50 (rat, strain Fischer 344, females, in drinking water, site: liver, lesion: hemangiosarcoma, dosed 50 weeks, study length 120 weeks) was 45.4 mg/kg/day, the TD50 (rat, strain Fischer 344, females, in drinking water, site: liver, lesion: hepatocellular carcinoma, dosed 50 weeks, study length 120 weeks) was 1.94 mg/kg/day and the TD50 (rat, strain Fischer 344, females, in drinking water, site: liver, lesion: hepatocellular carcinoma, dosed 55 weeks, study length 105 weeks) was 3.27 mg/kg/day. It also gave a TD50 (rat, strain Fischer 344, females, in drinking water, site: liver, lesion: hepatocellular carcinoma, dosed 75 weeks, study length 130 weeks) of 4.05 mg/kg/day, a TD50 (rat, strain Fischer 344, females, in drinking water, site: liver, lesion: neoplastic nodule, dosed 75 weeks, study length 130 weeks) of 2.93 mg/kg/day and a TD50 (rat, strain Fischer 344, females, in drinking water, site: liver, lesion: several types, types named in the paper, dosed 75 weeks, study length 130 weeks) of 1.9 mg/kg/day. The TD50 (rat, strain Fischer 344, females, in drinking water, site: nasal cavity, lesion: adenocarcinoma, dosed 55 weeks, study length 105 weeks) was 44.1 mg/kg/day, the TD50 (rat, strain Fischer 344, females, in drinking water, site: nasal cavity, lesion: olfactory carcinoma, dosed 55 weeks, study length 105 weeks) was 128 mg/kg/day and the TD50 (rat, strain Fischer 344, females, in drinking water, site: nasal cavity, lesion: squamous-cell carcinoma, dosed 55 weeks, study length 105 weeks) was 4320 mg/kg/day. The TD50 (rat, strain Fischer 344, males, in drinking water, site: esophagus, lesion: carcinoma, dosed 48 weeks, study length 95 weeks) was 432 mg/kg/day, the TD50 (rat, strain Fischer 344, males, in drinking water, site: esophagus, lesion: papilloma, dosed 48 weeks, study length 95 weeks) was 207 mg/kg/day and the TD50 (rat, strain Fischer 344, males, in drinking water, site: kidney, lesion: one or several types, types not named, dosed 48 weeks, study length 95 weeks) was 99.7 mg/kg/day. The TD50 (rat, strain Fischer 344, males, in drinking water, site: kidney, lesion: several types, types named in the paper, dosed 75 weeks, study length 125 weeks) was 19 mg/kg/day, the TD50 (rat, strain Fischer 344, males, in drinking water, site: liver, lesion: cholangioadenoma/carcinoma, dosed 75 weeks, study length 125 weeks) was 38.6 mg/kg/day and the TD50 (rat, strain Fischer 344, males, in drinking water, site: liver, lesion: cholangiocarcinoma, dosed 48 weeks, study length 95 weeks) was 23.9 mg/kg/day. The TD50 (rat, strain Fischer 344, males, in drinking water, site: liver, lesion: hepatocellular carcinoma, dosed 48 weeks, study length 95 weeks) was 2.77 mg/kg/day, the TD50 (rat, strain Fischer 344, males, in drinking water, site: liver, lesion: hepatocellular carcinoma, dosed 75 weeks, study length 125 weeks) was 9.03 mg/kg/day and the TD50 (rat, strain Fischer 344, males, in drinking water, site: liver, lesion: neoplastic nodule, dosed 75 weeks, study length 125 weeks) was 3.93 mg/kg/day. The TD50 (rat, strain Fischer 344, males, in drinking water, site: liver, lesion: several types, types named in the paper, dosed 75 weeks, study length 125 weeks) was 2.84 mg/kg/day, the TD50 (rat, strain Fischer 344, males, in drinking water, site: nasal cavity, lesion: adenocarcinoma, dosed 48 weeks, study length 95 weeks) was 15.5 mg/kg/day and the TD50 (rat, strain Fischer 344, males, in drinking water, site: nasal cavity, lesion: olfactory carcinoma, dosed 48 weeks, study length 95 weeks) was 50.4 mg/kg/day. The TD50 (rat, strain Fischer 344, males, in drinking water, site: nasal cavity, lesion: squamous-cell carcinoma, dosed 48 weeks, study length 95 weeks) was 280 mg/kg/day, the TD50 (rat, strain Sprague-Dawley, males, in drinking water, site: all sites, lesion: one or several types, types not named, dosed 162 weeks, study length 167 weeks) was 55.6 mg/kg/day and the TD50 (rat, strain Sprague-Dawley, males, in drinking water, site: any site (literature study), lesion: benign tumor, dosed 162 weeks, study length 167 weeks) was 7.93 mg/kg/day. The TD50 (rat, strain Sprague-Dawley, males, in drinking water, site: any site (literature study), lesion: malignant tumor, dosed 162 weeks, study length 167 weeks) was 23.5 mg/kg/day, the TD50 (rat, strain Sprague-Dawley, males, in drinking water, site: gastrointestinal tract, lesion: several types, types named in the paper, dosed 162 weeks, study length 167 weeks) was 143 mg/kg/day and the TD50 (rat, strain Sprague-Dawley, males, in drinking water, site: liver, lesion: cholangiocarcinoma, ductular, dosed 118 weeks, study length 147 weeks) was 10700 mg/kg/day. The TD50 (rat, strain Sprague-Dawley, males, in drinking water, site: liver, lesion: hemangioendothelioma, benign, dosed 162 weeks, study length 167 weeks) was 126 mg/kg/day, the TD50 (rat, strain Sprague-Dawley, males, in drinking water, site: liver, lesion: hepatocellular adenocarcinoma, dosed 118 weeks, study length 147 weeks) was 9.51 mg/kg/day and the TD50 (rat, strain Sprague-Dawley, males, in drinking water, site: liver, lesion: hepatocellular adenoma, dosed 162 weeks, study length 167 weeks) was 347 mg/kg/day. It also gave a TD50 (rat, strain Sprague-Dawley, males, in drinking water, site: liver, lesion: hepatocellular carcinoma, dosed 162 weeks, study length 167 weeks) of 70.4 mg/kg/day, a TD50 (rat, strain Sprague-Dawley, males, in drinking water, site: liver, lesion: several types, types named in the paper, dosed 118 weeks, study length 147 weeks) of 8.23 mg/kg/day and a TD50 (rat, strain Sprague-Dawley, males, in drinking water, site: liver, lesion: several types, types named in the paper, dosed 162 weeks, study length 167 weeks) of 38.4 mg/kg/day. It also gave a TD50 (rat, strain Sprague-Dawley, males, in drinking water, site: nasal cavity, lesion: olfactory neuroepithelioma, dosed 118 weeks, study length 147 weeks) of 679 mg/kg/day, a TD50 (rat, strain Sprague-Dawley, males, in drinking water, site: nasal cavity, lesion: several types, types named in the paper, dosed 118 weeks, study length 147 weeks) of 168 mg/kg/day and a TD50 (rat, strain Sprague-Dawley, males, in drinking water, site: nasal cavity, lesion: squamous-cell carcinoma, dosed 118 weeks, study length 147 weeks) of 954 mg/kg/day. The TD50 (rat, strain Sprague-Dawley, males, in drinking water, site: nervous system, lesion: one or several types, types not named, dosed 162 weeks, study length 167 weeks) was 42.5 mg/kg/day.
For `Cc1ncc([N+](=O)[O-])n1CCO`, the TD50 (mouse, strain Swiss, females, in feed, site: all sites, lesion: malignant lymphoma, dosed 122 weeks, study length 128 weeks) was 1300 mg/kg/day, the TD50 (mouse, strain Swiss, females, in feed, site: liver, lesion: several types, types named in the paper, dosed 122 weeks, study length 128 weeks) was 24200 mg/kg/day (inactive) and the TD50 (mouse, strain Swiss, females, in feed, site: lung, lesion: several types, types named in the paper, dosed 122 weeks, study length 128 weeks) was 937 mg/kg/day. For the same compound, the TD50 (mouse, strain Swiss, males, in feed, site: liver, lesion: several types, types named in the paper, dosed 116 weeks, study length 124 weeks) was 20700 mg/kg/day (inactive), the TD50 (mouse, strain Swiss, males, in feed, site: lung, lesion: several types, types named in the paper, dosed 116 weeks, study length 124 weeks) was 347 mg/kg/day and the TD50 (rat, strain Sas:MRC(WI)BR, females, in feed, site: any site (literature study), lesion: several types, types named in the paper, dosed 147 weeks, study length 151 weeks) was 139 mg/kg/day. For the same compound, the TD50 (rat, strain Sas:MRC(WI)BR, females, in feed, site: liver, lesion: hepatocellular carcinoma, dosed 147 weeks, study length 151 weeks) was 1860 mg/kg/day, the TD50 (rat, strain Sas:MRC(WI)BR, females, in feed, site: mammary gland, lesion: fibroadenoma, dosed 147 weeks, study length 151 weeks) was 431 mg/kg/day and the TD50 (rat, strain Sas:MRC(WI)BR, females, in feed, site: mammary gland, lesion: several types, types named in the paper, dosed 147 weeks, study length 151 weeks) was 446 mg/kg/day. The carcinogen call (rat, strain Sas:MRC(WI)BR, females, in feed, site: pituitary gland, lesion: several types, types named in the paper, dosed 147 weeks, study length 151 weeks) was “negative (inactive)”, the TD50 (rat, strain Sas:MRC(WI)BR, females, in feed, site: subcutaneous tissue, lesion: several types, types named in the paper, dosed 147 weeks, study length 151 weeks) was 4050 mg/kg/day and the TD50 (rat, strain Sas:MRC(WI)BR, females, in feed, site: uterus, lesion: several types, types named in the paper, dosed 147 weeks, study length 151 weeks) was 2970 mg/kg/day (inactive). The TD50 (rat, strain Sas:MRC(WI)BR, males, in feed, site: any site (literature study), lesion: several types, types named in the paper, dosed 140 weeks, study length 144 weeks) was 211 mg/kg/day, the TD50 (rat, strain Sas:MRC(WI)BR, males, in feed, site: liver, lesion: hepatocellular carcinoma, dosed 140 weeks, study length 144 weeks) was 45900 mg/kg/day and the TD50 (rat, strain Sas:MRC(WI)BR, males, in feed, site: mammary gland, lesion: fibroadenoma, dosed 140 weeks, study length 144 weeks) was 2490 mg/kg/day. For the same compound, the TD50 (rat, strain Sas:MRC(WI)BR, males, in feed, site: pituitary gland, lesion: several types, types named in the paper, dosed 140 weeks, study length 144 weeks) was 731 mg/kg/day, the TD50 (rat, strain Sas:MRC(WI)BR, males, in feed, site: subcutaneous tissue, lesion: several types, types named in the paper, dosed 140 weeks, study length 144 weeks) was 2360 mg/kg/day and the TD50 (rat, strain Sas:MRC(WI)BR, males, in feed, site: testis, lesion: several types, types named in the paper, dosed 140 weeks, study length 144 weeks) was 993 mg/kg/day. For the same compound, the TD50 (rat, strain Sprague-Dawley, females, in feed, site: any site (literature study), lesion: several types, types named in the paper, dosed 66 weeks, study length 75 weeks) was 61.1 mg/kg/day (inactive) and the TD50 (rat, strain Sprague-Dawley, females, in feed, site: uterus, lesion: adenomyoma, dosed 66 weeks, study length 75 weeks) was 180 mg/kg/day (inactive).
With `CC(=O)O[C@]1(C(C)=O)CC[C@H]2[C@@H]3C=C(Cl)C4=CC(=O)[C@@H]5C[C@@H]5[C@]4(C)[C@H]3CC[C@@]21C` the TD50 (mouse, strain C57BL/10J, females, in feed, site: liver, lesion: hepatocellular adenoma, dosed 97 weeks, study length 97 weeks) was 1120 mg/kg/day, the TD50 (mouse, strain C57BL/10J, females, in feed, site: liver, lesion: hepatocellular carcinoma, dosed 97 weeks, study length 97 weeks) was 254 mg/kg/day and the TD50 (mouse, strain C57BL/10J, females, in feed, site: liver, lesion: several types, types named in the paper, dosed 97 weeks, study length 97 weeks) was 254 mg/kg/day. It also gave a TD50 (mouse, strain C57BL/10J, females, in feed, site: pylorus, lesion: adenomatous polyp, dosed 97 weeks, study length 97 weeks) of 16.8 mg/kg/day, a TD50 (mouse, strain C57BL/10J, males, in feed, site: liver, lesion: hepatocellular adenoma, dosed 104 weeks, study length 104 weeks) of 333 mg/kg/day and a TD50 (mouse, strain C57BL/10J, males, in feed, site: liver, lesion: hepatocellular carcinoma, dosed 104 weeks, study length 104 weeks) of 179 mg/kg/day. It also gave a TD50 (mouse, strain C57BL/10J, males, in feed, site: liver, lesion: several types, types named in the paper, dosed 104 weeks, study length 104 weeks) of 115 mg/kg/day and a TD50 (mouse, strain C57BL/10J, males, in feed, site: pylorus, lesion: adenomatous polyp, dosed 104 weeks, study length 104 weeks) of 31.6 mg/kg/day.
Compound `C[C@@H]1C[C@H](C)CN(S(=O)(=O)c2ccc(Cl)c(C(=O)O)c2)C1` has a TD50 (rat, strain Fischer 344, males, in feed, site: liver, lesion: hepatocellular carcinoma, dosed 70 weeks, study length 71 weeks) of 4.85 mg/kg/day.
`Clc1cccc(-c2cc(Cl)cc(Cl)c2)c1` was tested, and the TD50 (rat, strain Sprague-Dawley, females, in feed, site: liver, lesion: hepatocellular adenoma, dosed 104 weeks, study length 104 weeks) was 59.3 mg/kg/day, the TD50 (rat, strain Sprague-Dawley, females, in feed, site: liver, lesion: hepatocellular carcinoma, dosed 104 weeks, study length 104 weeks) was 598 mg/kg/day and the TD50 (rat, strain Sprague-Dawley, females, in feed, site: liver, lesion: several types, types named in the paper, dosed 104 weeks, study length 104 weeks) was 53.9 mg/kg/day. The TD50 (rat, strain Sprague-Dawley, males, in feed, site: liver, lesion: several types, types named in the paper, dosed 104 weeks, study length 104 weeks) was 872 mg/kg/day.
